Assay results: patent US20250109121A1, “POTENT AND SELECTIVE SMARCA2 DEGRADING CHIMERIC MOLECULES AS CANCER THERAPEUTICS” (BOARD OF REGENTS, THE UNIVERSITY OF TEXAS SYSTEM, priority 2021, published 2025)
“Also recorded” adds a separate entry of the source. Where two headings read alike, the source gives them in different places.

Experiments:
Assay type in all cases: cell-based
A549 = assay: Cell proliferation (colony assay) IC50; details: Homo sapiens; A549, mutant SMARCA4
HCC366 = assay: Cell proliferation (colony assay) IC50; details: HCC366, mutant SMARCA4
H2023 = assay: Cell proliferation (colony assay) IC50; details: NCI-H2023; H2023, mutant SMARCA4
mutant SMARCA4 cells = assay: Colony assay / cell proliferation, mutant SMARCA4 cell lines as a group
Description: Cell lines with wild-type SMARCA4 (HCC44, H2122, H1792 and H1975) and cell lines with mutant SMARCA4 (H1693, HCC515, H322, and H1299) were seeded in appropriate dilutions to form colonies in about 1-3 weeks. Cells were treated with ACBI1 or Compound 101 at concentrations of 0.001, 0.01, 0.1, 1, and 10 μm. Colonies were fixed with glutaraldehyde (6% v/v), stained with crystal violet (0.5% w/v) and the percent area of colonies was determined (FIGS. 3A and 3B). In cell lines with wild-type SMARCA4, inhibition of colony growth was more pronounced after treatment with ACBI1 than Compound 101 (FIG. 3A).

SMARCA2 [1] = molecular target: T1, SMARCA2 (Homo sapiens, UniProt P51531); assay: SMARCA2 degradation in cell lines, western blot
T1 sequence (P51531 whole entry): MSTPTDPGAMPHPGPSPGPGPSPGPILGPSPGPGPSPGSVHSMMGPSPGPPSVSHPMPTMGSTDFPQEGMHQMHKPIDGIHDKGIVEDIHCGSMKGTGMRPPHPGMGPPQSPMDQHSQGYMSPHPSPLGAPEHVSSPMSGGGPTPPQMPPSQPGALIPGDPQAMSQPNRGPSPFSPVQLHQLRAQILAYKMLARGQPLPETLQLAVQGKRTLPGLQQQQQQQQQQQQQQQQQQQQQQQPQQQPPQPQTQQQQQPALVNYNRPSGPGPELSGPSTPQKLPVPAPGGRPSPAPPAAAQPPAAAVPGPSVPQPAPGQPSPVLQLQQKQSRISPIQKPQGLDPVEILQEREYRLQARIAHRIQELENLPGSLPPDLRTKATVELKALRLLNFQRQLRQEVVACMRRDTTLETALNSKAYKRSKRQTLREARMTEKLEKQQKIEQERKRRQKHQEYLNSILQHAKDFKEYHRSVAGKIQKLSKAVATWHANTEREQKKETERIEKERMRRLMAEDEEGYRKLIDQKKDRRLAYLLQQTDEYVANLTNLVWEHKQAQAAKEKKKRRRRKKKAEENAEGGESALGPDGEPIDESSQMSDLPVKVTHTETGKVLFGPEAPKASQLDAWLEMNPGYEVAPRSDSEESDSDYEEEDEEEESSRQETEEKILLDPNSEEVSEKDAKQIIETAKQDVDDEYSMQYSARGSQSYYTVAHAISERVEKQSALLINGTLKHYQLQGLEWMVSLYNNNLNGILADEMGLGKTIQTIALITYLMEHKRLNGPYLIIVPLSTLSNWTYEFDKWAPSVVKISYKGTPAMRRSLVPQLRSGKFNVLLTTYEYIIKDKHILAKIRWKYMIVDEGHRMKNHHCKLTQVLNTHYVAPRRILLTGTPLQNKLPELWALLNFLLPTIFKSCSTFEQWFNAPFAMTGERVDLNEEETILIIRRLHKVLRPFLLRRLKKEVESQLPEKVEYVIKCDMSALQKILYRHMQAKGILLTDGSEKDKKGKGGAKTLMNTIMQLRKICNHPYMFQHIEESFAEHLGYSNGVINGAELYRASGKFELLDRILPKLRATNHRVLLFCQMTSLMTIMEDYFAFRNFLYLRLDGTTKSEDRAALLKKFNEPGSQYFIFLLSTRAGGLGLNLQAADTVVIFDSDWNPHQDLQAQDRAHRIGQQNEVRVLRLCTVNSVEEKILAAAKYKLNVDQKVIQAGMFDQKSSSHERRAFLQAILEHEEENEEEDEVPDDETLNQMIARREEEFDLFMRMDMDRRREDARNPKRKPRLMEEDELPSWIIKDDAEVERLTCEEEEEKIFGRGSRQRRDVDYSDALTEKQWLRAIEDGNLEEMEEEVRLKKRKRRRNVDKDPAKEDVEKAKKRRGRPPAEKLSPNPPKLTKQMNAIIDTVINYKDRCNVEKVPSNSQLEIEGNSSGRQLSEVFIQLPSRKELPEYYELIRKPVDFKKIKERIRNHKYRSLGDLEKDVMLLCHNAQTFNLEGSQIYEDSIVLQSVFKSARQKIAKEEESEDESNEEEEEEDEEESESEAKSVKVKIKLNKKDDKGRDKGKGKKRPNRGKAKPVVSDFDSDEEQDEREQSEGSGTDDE
Description: Cell lines with wild-type SMARCA4 (H1975, H1792, H2122, and H441) were treated with DMSO or 0.001, 0.01, 0.1, 1, or 10 μm of ACBI1 (degrader of SMARCA2, SMARCA4 and polybromo-associated BAF complex PBRM1) or Compound 101 and expression levels of SMARCA2 (FIG. 2A) and SMARCA4 (FIG. 2B) were detected by western blot.
Cell lines with wild-type SMARCA4 (H1792) and mutant SMARCA4 (H1299) were treated for 72 h or 96 h with DMSO or 0.001, 0.01, 0.1, 1, or 10 μm Compound 103 and analyzed by western blot for SMARCA2, SMARCA4, and PBRM1 expression (FIGS. 4A, 4B, and 4C).
Cell lines with wild-type SMARCA4 (H1792) and mutant SMARCA4 (H1299) were treated for 72 h or 96 h with DMSO or 0.001, 0.01, 0.1, 1, or 10 μm Compound 102 and analyzed by western blot for SMARCA2, SMARCA4, and PBRM1 expression (FIGS. 5A, 5B, and 5C).
Cell lines with wild-type SMARCA4 (H1975) were treated with DMSO or 0.001, 0.01, 0.1, 1, or 10 μm of Compounds 104, 105, 106, 107, or 108 and analyzed by western blot for SMARCA2, SMARCA4, and PBRM1 expression (FIGS. 6A and 6B).

H2228 = assay: Cell proliferation (colony assay) IC50; details: Homo sapiens, NCI-H2228; H2228, wild-type SMARCA4
SMARCA2 [2] = molecular target: T1, SMARCA2; assay: SMARCA2 degradation in cell lines, western blot; remark: listed apart in the source

Nc1nnc(-c2ccccc2O)cc1N1CCN(Cc2ccc(OCCOCCNc3cccc4c3C(=O)N(C3CCC(=O)NC3=O)C4=O)c(F)c2)CC1 (stereo not shown) [Compound 101]
IC50 (A549): > 10000 nM | IC50 (HCC366): 242 nM | IC50 (H2023): 483 nM | colony growth / proliferation of mutant SMARCA4 cells (in words) (mutant SMARCA4 cells; H1693, HCC515, H322, H1299, 0.001-10 μm): selectively inhibited SMARCA4 mutant cells; also recorded: selectively inhibited cell proliferation in mutant SMARCA4 cell lines | IC50 (mutant SMARCA4 cells; mutant SMARCA4 cells (Table 5), upper end printed as >10 M, read-out: IC50, lower end of span over cell lines): ≥ 93 nM | inhibition at 0.1 µM (mutant SMARCA4 cells; read-out: inhibition at 100 nM in SMARCA4 mutant cells (see FIG. 3D)): ≤ 50% | DC50 (SMARCA2 [1]; H441, wild-type SMARCA4 cell line): 99 nM | DC50 (SMARCA2 [1]; H1792, wild-type SMARCA4 cell line): 94 nM | SMARCA2 degradation (western blot, in words) (SMARCA2 [1]; H1975, H1792, H2122, H441, 0.001-10 μm, increasing concentrations): degraded SMARCA2 and SMARCA4 | DC50 (SMARCA2 [1]; H1975, wild-type SMARCA4 cell line, concentration at which 50% of the target protein is degraded): 103 nM | DC50 (SMARCA2 [1]; H2122, wild-type SMARCA4 cell line): 292 nM | selectivity in degrading SMARCA2 compared to SMARCA4, relative to ACBI1 (SMARCA2 [1]; wild-type SMARCA4 cell lines H1975, H1792, H2122, H441): greater than 100 times | IC50 (H2228): 970 nM | Dmax (SMARCA2 [2]; A549, A549, mutant SMARCA4 cell line, read-out: SMARCA2 Dmax (%)): 96% | DC50 (SMARCA2 [2]; A549, mutant SMARCA4 cell line): 57 nM | DC50 (SMARCA2 [2]; H322, mutant SMARCA4 cell line): 27 nM | DC50 (SMARCA2 [2]; H838, mutant SMARCA4 cell line): 26 nM | DC50 (SMARCA2 [2]; H1693, mutant SMARCA4 cell line): 113 nM | DC50 (SMARCA2 [2]; H1793, mutant SMARCA4 cell line): 2 nM | DC50 (SMARCA2 [2]; H2023, mutant SMARCA4 cell line): 42 nM | DC50 (SMARCA2 [2]; H2126, mutant SMARCA4 cell line): 10 nM | DC50 (SMARCA2 [2]; H2228, wild-type SMARCA4 cell line): 106 nM | DC50 (SMARCA2 [2]; H2935, mutant SMARCA4 cell line): 8 nM | Dmax (SMARCA2 [2]; H2935, mutant SMARCA4 cell line, read-out: SMARCA2 Dmax (%)): 83% | Dmax (SMARCA2 [2]; HCC44, HCC44, wild-type SMARCA4 cell line, read-out: SMARCA2 Dmax (%)): 99% | DC50 (SMARCA2 [2]; HCC44, wild-type SMARCA4 cell line): 69 nM | Dmax (SMARCA2 [2]; HCC366, HCC366, mutant SMARCA4 cell line, read-out: SMARCA2 Dmax (%)): 99% | DC50 (SMARCA2 [2]; HCC366, mutant SMARCA4 cell line): 13 nM | Dmax (SMARCA2 [2]; HCC515, HCC515, mutant SMARCA4 cell line, read-out: SMARCA2 Dmax (%)): 81% | DC50 (SMARCA2 [2]; HCC515, mutant SMARCA4 cell line): 83 nM | Dmax (SMARCA2 [2]; HCC827, HCC827, wild-type SMARCA4 cell line, read-out: SMARCA2 Dmax (%)): 83% | DC50 (SMARCA2 [2]; HCC827, wild-type SMARCA4 cell line): 70 nM | DC50 (SMARCA2 [2]; HCC2279, wild-type SMARCA4 cell line): 32 nM | Dmax (SMARCA2 [2]; HCC2279, wild-type SMARCA4 cell line, read-out: SMARCA2 Dmax (%)): 99% | DC50 (SMARCA2 [2]; HOP62, wild-type SMARCA4 cell line): 33 nM | Dmax (SMARCA2 [2]; HOP-62, HOP62, wild-type SMARCA4 cell line, read-out: SMARCA2 Dmax (%)): 99% | Dmax (SMARCA2 [2]; NCI-H322, H322, mutant SMARCA4 cell line, read-out: SMARCA2 Dmax (%)): 99% | Dmax (SMARCA2 [2]; NCI-H441, H441, wild-type SMARCA4 cell line, read-out: SMARCA2 Dmax (%)): 67% | Dmax (SMARCA2 [2]; NCI-H838, H838, mutant SMARCA4 cell line, read-out: SMARCA2 Dmax (%)): 98% | Dmax (SMARCA2 [2]; NCI-H1693, H1693, mutant SMARCA4 cell line, read-out: SMARCA2 Dmax (%)): 84% | Dmax (SMARCA2 [2]; NCI-H1792, H1792, wild-type SMARCA4 cell line, read-out: SMARCA2 Dmax (%)): 89% | Dmax (SMARCA2 [2]; NCI-H1793, H1793, mutant SMARCA4 cell line, read-out: SMARCA2 Dmax (%)): 99% | Dmax (SMARCA2 [2]; NCI-H1975, H1975, wild-type SMARCA4 cell line, maximum degradation as percentage of DMSO control, read-out: SMARCA2 Dmax (%)): 93% | Dmax (SMARCA2 [2]; NCI-H2023, H2023, mutant SMARCA4 cell line, read-out: SMARCA2 Dmax (%)): 99% | Dmax (SMARCA2 [2]; NCI-H2122, H2122, wild-type SMARCA4 cell line, read-out: SMARCA2 Dmax (%)): 94% | Dmax (SMARCA2 [2]; NCI-H2126, H2126, mutant SMARCA4 cell line, read-out: SMARCA2 Dmax (%)): 99% | Dmax (SMARCA2 [2]; NCI-H2228, H2228, wild-type SMARCA4 cell line, read-out: SMARCA2 Dmax (%)): 82% | Dmax (SMARCA2 [2]; mutant SMARCA4 cells (Table 5), read-out: SMARCA2 Dmax, span over cell lines): 81 to 99% | Dmax (SMARCA2 [2]; wild-type SMARCA4 cells (Table 4), read-out: SMARCA2 Dmax, span over cell lines): 82 to 99%
